ChEMBL document CHEMBL5321283, “Structure-Activity Relationships of the Antimicrobial Peptide Natural Product Apidaecin” (J Med Chem, 2023)
≈ marks a conversion by molar mass, not a printed value. *1 amine or outer side, *2 acyl side, *3 side chain or, on linkers, in order; H or OH if unused. Where a SMILES comes first, the peptide text is derived from it. [ ]: non-standard residue; d: D form. The star is where a group is joined. Orn(α-tetramethylguanidino) = CN(C)C(=N[C@@H](CCCN)C(=O)*)N(C)C; X1 = N=C(N)NCCC[C@H](NC(=S)[C@@H]1CCCN1[*:1])C(=O)[*:2]; 2Nal = N[C@@H](Cc1ccc2ccccc2c1)C(=O)O; Hyp = O=C(O)[C@@H]1C[C@@H](O)CN1; hArg = N=C(N)NCCCC[C@H](N)C(=O)O; Cha = N[C@@H](CC1CCCCC1)C(=O)O; Cit = NC(=O)NCCC[C@H](N)C(=O)O; dLeu(ol) = CC(C)C[C@@H](N)CO; Leu(ol) = CC(C)C[C@H](N)CO; NHIsopentyl = CC(C)CCN*

Legend:
[1] = tested on: Escherichia coli; assay: Antibacterial activity against Escherichia coli BL21 assessed as bacterial growth inhibition by broth microdilution assay; type: functional
[2] = tested on: Escherichia coli; assay: Potency index, ratio of Api-137 MIC to test compound MIC for antibacterial activity against Escherichia coli BL21 assessed as bacterial growth inhibition by broth microdilution assay; type: functional

Structure (SMILES)	MIC [1]	Ratio [2]
CC[C@H](C)[C@H](NC(=O)[C@H](Cc1ccc(O)cc1)NC(=O)[C@@H](NC(=O)[C@@H]1CCCN1C(=O)[C@H](CCCNC(=N)N)NC(=O)[C@H](CC(N)=O)NC(=O)[C@H](CC(N)=O)NC(=O)[C@H](CCCN)N=C(N(C)C)N(C)C)C(C)C)C(=O)N1CCC[C@H]1C(=O)N[C@@H](CCCNC(=N)N)C(=O)N1CCC[C@H]1C(=O)N[C@@H](CCCNC(=N)N)C(=O)N1CCC[C@H]1C(=O)N1CCC[C@H]1C(=O)N[C@@H](Cc1c[nH]cn1)C(=O)N1CCC[C@H]1C(=O)N[C@@H](CCCNC(=N)N)C(=O)N[C@@H](CO)Cc1ccccc1	40 µM (≈ 92.5 µg/mL)	800
CC[C@H](C)[C@H](NC(=O)[C@H](Cc1ccc(O)cc1)NC(=O)[C@@H](NC(=O)[C@@H]1CCCN1C(=O)[C@H](CCCNC(=N)N)NC(=O)[C@H](CC(N)=O)NC(=O)[C@H](CC(N)=O)NC(=O)[C@H](CCCN)N=C(N(C)C)N(C)C)C(C)C)C(=O)N1CCC[C@H]1C(=O)N[C@@H](CCCNC(=N)N)C(=O)N1CCC[C@H]1C(=O)N[C@@H](CCCNC(=N)N)C(=O)N1CCC[C@H]1C(=O)N1CCC[C@H]1C(=O)N[C@@H](Cc1c[nH]cn1)C(=O)N1CCC[C@H]1C(=O)N[C@@H](CCCNC(=N)N)C(=O)N[C@H](CO)Cc1ccccc1	5 µM (≈ 11.6 µg/mL)	32
CC[C@H](C)[C@H](NC(=O)[C@H](Cc1ccc(OC)cc1)NC(=O)[C@@H](NC(=O)[C@@H]1CCCN1C(=O)[C@H](CCCNC(=N)N)NC(=O)[C@H](CC(N)=O)NC(=O)[C@H](CC(N)=O)NC(=O)[C@H](CCCN)N=C(N(C)C)N(C)C)C(C)C)C(=O)N1CCC[C@H]1C(=O)N[C@@H](CCCNC(=N)N)C(=O)N1CCC[C@H]1C(=O)N[C@@H](CCCNC(=N)N)C(=O)N1CCC[C@H]1C(=O)N1CCC[C@H]1C(=O)N[C@@H](Cc1c[nH]cn1)C(=O)N1CCC[C@H]1C(=O)N[C@@H](CCCNC(=N)N)C(=O)N[C@@H](CC(C)C)C(=O)O ({Orn(α-tetramethylguanidino)}-NNRPVY(Me)IPRPRPPHPRL-OH)	1.5 µM (≈ 3.46 µg/mL)	4
CC[C@H](C)[C@H](NC(=O)[C@H](Cc1ccc(O)cc1)NC(=O)[C@@H](NC(=O)[C@@H]1CCCN1C(=O)[C@H](CCCNC(=N)N)NC(=O)[C@H](CC(N)=O)NC(=O)[C@H](CC(N)=O)NC(=O)[C@H](CCCN)N=C(N(C)C)N(C)C)C(C)C)C(=O)N1CCC[C@H]1C(=O)N[C@@H](CCCNC(=N)N)C(=O)N1CCC[C@H]1C(=O)N[C@@H](CCCNC(=N)N)C(=O)N1CCC[C@H]1C(=O)N1CCC[C@H]1C(=O)N[C@@H](Cc1c[nH]cn1)C(=O)N1CCC[C@H]1C(=O)N[C@@H](CCCNC(=N)N)C(=O)NCCC(C)C ({Orn(α-tetramethylguanidino)}-NNRPVYIPRPRPPHPR-NHIsopentyl)	> 40 µM	>800
CC[C@H](C)[C@H](NC(=O)[C@H](Cc1ccc(O)cc1)NC(=O)[C@@H](NC(=O)[C@@H]1CCCN1C(=O)[C@H](CCCNC(=N)N)NC(=O)[C@H](CC(N)=O)NC(=O)[C@H](CC(N)=O)NC(=O)[C@H](CCCN)N=C(N(C)C)N(C)C)C(C)C)C(=O)N1CCC[C@H]1C(=O)N[C@@H](CCCNC(=N)N)C(=O)N1CCC[C@H]1C(=O)N[C@@H](CCCNC(=N)N)C(=O)N1CCC[C@H]1C(=O)N1CCC[C@H]1C(=O)N[C@@H](Cc1c[nH]cn1)C(=O)N1CCC[C@H]1C(=O)N[C@@H](CCCNC(=N)N)C(=O)N[C@H](CO)CC(C)C ({Orn(α-tetramethylguanidino)}-NNRPVYIPRPRPPHPR[Leu(ol)])	5 µM (≈ 11.4 µg/mL)	32
CC[C@H](C)[C@H](NC(=O)[C@H](Cc1ccc(O)cc1)NC(=O)[C@@H](NC(=O)[C@@H]1CCCN1C(=O)[C@H](CCCNC(=N)N)NC(=O)[C@H](CC(N)=O)NC(=O)[C@H](CC(N)=O)NC(=O)[C@H](CCCN)N=C(N(C)C)N(C)C)C(C)C)C(=O)N1CCC[C@H]1C(=O)N[C@@H](CCCNC(=N)N)C(=O)N1CCC[C@H]1C(=O)N[C@@H](CCCNC(=N)N)C(=O)N1CCC[C@H]1C(=O)N1CCC[C@H]1C(=O)N[C@@H](Cc1c[nH]cn1)C(=O)N1CCC[C@H]1C(=O)N[C@@H](CCCNC(=N)N)C(=O)N[C@@H](CO)CC(C)C ({Orn(α-tetramethylguanidino)}-NNRPVYIPRPRPPHPR[dLeu(ol)])	10 µM (≈ 22.8 µg/mL)	62
CC[C@H](C)[C@H](NC(=O)[C@H](Cc1ccc(O)cc1)NC(=O)[C@@H](NC(=O)[C@@H]1CCCN1C(=O)[C@H](CCCNC(=N)N)NC(=O)[C@H](CC(N)=O)NC(=O)[C@H](CC(N)=O)NC(=O)[C@H](CCCN)N=C(N(C)C)N(C)C)C(C)C)C(=O)N1CCC[C@H]1C(=O)N[C@@H](CCCNC(=N)N)C(=O)N1CCC[C@H]1C(=O)N[C@@H](CCCNC(=N)N)C(=O)N1CCC[C@H]1C(=O)N1CCC[C@H]1C(=O)N[C@@H](Cc1c[nH]cn1)C(=O)N1CCC[C@H]1C(=O)N[C@@H](CCCNC(N)=O)C(=O)N[C@@H](CC(C)C)C(=O)O ({Orn(α-tetramethylguanidino)}-NNRPVYIPRPRPPHP[Cit]L-OH)	20 µM (≈ 45.9 µg/mL)	128
CC[C@H](C)[C@H](NC(=O)[C@H](Cc1ccc(O)cc1)NC(=O)[C@@H](NC(=O)[C@@H]1CCCN1C(=O)[C@H](CCCNC(=N)N)NC(=O)[C@H](CC(N)=O)NC(=O)[C@H](CC(N)=O)NC(=O)[C@H](CCCN)N=C(N(C)C)N(C)C)C(C)C)C(=O)N1CCC[C@H]1C(=O)N[C@@H](CCCNC(=N)N)C(=O)N1CCC[C@H]1C(=O)N[C@@H](CCCNC(=N)N)C(=O)N1CCC[C@H]1C(=O)N1CCC[C@H]1C(=O)N[C@@H](Cc1c[nH]cn1)C(=O)N1CCC[C@H]1C(=O)N[C@@H](CCCCNC(=N)N)C(=O)N[C@@H](CC(C)C)C(=O)O ({Orn(α-tetramethylguanidino)}-NNRPVYIPRPRPPHP[hArg]L-OH)	2.5 µM (≈ 5.76 µg/mL)	16
CC[C@H](C)[C@H](NC(=O)[C@H](Cc1ccc(O)cc1)NC(=O)[C@@H](NC(=O)[C@@H]1CCCN1C(=O)[C@H](CCCNC(=N)N)NC(=O)[C@H](CC(N)=O)NC(=O)[C@H](CC(N)=O)NC(=O)[C@H](CCCN)N=C(N(C)C)N(C)C)C(C)C)C(=O)N1CCC[C@H]1C(=O)N[C@@H](CCCNC(=N)N)C(=O)N1CCC[C@H]1C(=O)N[C@@H](CCCNC(=N)N)C(=O)N1CCC[C@H]1C(=O)N1CCC[C@H]1C(=O)N[C@@H](Cc1c[nH]cn1)C(=O)N1C[C@H](O)C[C@H]1C(=O)N[C@@H](CCCNC(=N)N)C(=O)N[C@@H](CC(C)C)C(=O)O ({Orn(α-tetramethylguanidino)}-NNRPVYIPRPRPPH[Hyp]RL-OH)	0.3 µM (≈ 0.692 µg/mL)	2
CC[C@H](C)[C@H](NC(=O)[C@H](Cc1ccc(O)cc1)NC(=O)[C@@H](NC(=O)[C@@H]1CCCN1C(=O)[C@H](CCCNC(=N)N)NC(=O)[C@H](CC(N)=O)NC(=O)[C@H](CC(N)=O)NC(=O)[C@H](CCCN)N=C(N(C)C)N(C)C)C(C)C)C(=O)N1CCC[C@H]1C(=O)N[C@@H](CCCNC(=N)N)C(=O)N1CCC[C@H]1C(=O)N[C@@H](CCCNC(=N)N)C(=O)N1CCC[C@H]1C(=O)N1CCC[C@H]1C(=O)N[C@@H](Cc1c[nH]cn1)C(=O)N1CCC[C@H]1C(=S)N[C@@H](CCCNC(=N)N)C(=O)N[C@@H](CC(C)C)C(=O)O ({Orn(α-tetramethylguanidino)}-NNRPVYIPRPRPPH[X1]L-OH)	0.62 µM (≈ 1.43 µg/mL)	4
CC[C@H](C)[C@H](NC(=O)[C@H](Cc1ccc(O)cc1)NC(=O)[C@@H](NC(=O)[C@@H]1CCCN1C(=O)[C@H](CCCNC(=N)N)NC(=O)[C@H](CC(N)=O)NC(=O)[C@H](CC(N)=O)NC(=O)[C@H](CCCN)N=C(N(C)C)N(C)C)C(C)C)C(=O)N1CCC[C@H]1C(=O)N[C@@H](CCCNC(=N)N)C(=O)N1CCC[C@H]1C(=O)N[C@@H](CCCNC(=N)N)C(=O)N1CCC[C@H]1C(=O)N1CCC[C@H]1C(=O)N[C@@H](Cc1c[nH]c2ccccc12)C(=O)N1CCC[C@H]1C(=O)N[C@@H](CCCNC(=N)N)C(=O)N[C@@H](CC(C)C)C(=O)O ({Orn(α-tetramethylguanidino)}-NNRPVYIPRPRPPWPRL-OH)	1.2 µM (≈ 2.81 µg/mL)	8
CC[C@H](C)[C@H](NC(=O)[C@H](Cc1ccc(O)cc1)NC(=O)[C@@H](NC(=O)[C@@H]1CCCN1C(=O)[C@H](CCCNC(=N)N)NC(=O)[C@H](CC(N)=O)NC(=O)[C@H](CC(N)=O)NC(=O)[C@H](CCCN)N=C(N(C)C)N(C)C)C(C)C)C(=O)N1CCC[C@H]1C(=O)N[C@@H](CCCNC(=N)N)C(=O)N1CCC[C@H]1C(=O)N[C@@H](CCCNC(=N)N)C(=O)N1CCC[C@H]1C(=O)N1CCC[C@H]1C(=O)N[C@@H](Cc1ccc2ccccc2c1)C(=O)N1CCC[C@H]1C(=O)N[C@@H](CCCNC(=N)N)C(=O)N[C@@H](CC(C)C)C(=O)O ({Orn(α-tetramethylguanidino)}-NNRPVYIPRPRPP[2Nal]PRL-OH)	10 µM (≈ 23.5 µg/mL)	63
CC[C@H](C)[C@H](NC(=O)[C@H](Cc1ccc(O)cc1)NC(=O)[C@@H](NC(=O)[C@@H]1CCCN1C(=O)[C@H](CCCNC(=N)N)NC(=O)[C@H](CC(N)=O)NC(=O)[C@H](CC(N)=O)NC(=O)[C@H](CCCN)N=C(N(C)C)N(C)C)C(C)C)C(=O)N1CCC[C@H]1C(=O)N[C@@H](CCCNC(=N)N)C(=O)N1CCC[C@H]1C(=O)N[C@@H](CCCNC(=N)N)C(=O)N1CCC[C@H]1C(=O)N1CCC[C@H]1C(=O)N[C@@H](CC1CCCCC1)C(=O)N1CCC[C@H]1C(=O)N[C@@H](CCCNC(=N)N)C(=O)N[C@@H](CC(C)C)C(=O)O ({Orn(α-tetramethylguanidino)}-NNRPVYIPRPRPP[Cha]PRL-OH)	5 µM (≈ 11.5 µg/mL)	32
CC[C@H](C)[C@H](NC(=O)[C@H](Cc1ccc(O)cc1)NC(=O)[C@@H](NC(=O)[C@@H]1CCCN1C(=O)[C@H](CCCNC(=N)N)NC(=O)[C@H](CC(N)=O)NC(=O)[C@H](CC(N)=O)NC(=O)[C@H](CCCN)N=C(N(C)C)N(C)C)C(C)C)C(=O)N1CCC[C@H]1C(=O)N[C@@H](CCCNC(=N)N)C(=O)N1CCC[C@H]1C(=O)N[C@@H](CCCNC(=N)N)C(=O)N1CCC[C@H]1C(=O)N1C[C@H](O)C[C@H]1C(=O)N[C@@H](Cc1c[nH]cn1)C(=O)N1CCC[C@H]1C(=O)N[C@@H](CCCNC(=N)N)C(=O)N[C@@H](CC(C)C)C(=O)O ({Orn(α-tetramethylguanidino)}-NNRPVYIPRPRP[Hyp]HPRL-OH)	0.6 µM (≈ 1.38 µg/mL)	2
